Data published in patent publication EP2832344A1, “COMPOSITION, AND EXTERNAL PREPARATION FOR THE SKIN OR FUNCTIONAL FOOD EACH CONTAINING SAID COMPOSITION” (FUJI-FILM Corporation, priority 2012, dated 2013).

Key:
[1] = Storage stability of hydroxystilbenes (residual amount by HPLC); assay type: physicochemical; conditions: for remaining at 1032 h: pH 8, left 43 days at room temperature, sample with PEG-60 hydrogenated castor oil in citric acid buffer solution, HPLC
Procedure: Various hydroxystilbenes shown in the following Table 1 were dissolved in ethanol, thereby preparing a 1% solution. The solution was stirred together with PEG-60 hydrogenated castor oil which was in an amount 10 times the amount of the solution with respect to 1 part of the ethanol solution. Thereafter, the resultant was diluted by 100-fold with a citric acid buffer solution, thereby preparing a sample.
pH of the sample prepared as above was regulated to be 8, and the sample was left as is for a month and a half (43 days) at room temperature. Thereafter, by means of HPLC, a residual amount of various hydroxystilbenes in each sample was determined. Analysis conditions for HPLC are as follows.
• Column: C18 5 µm, 4.6 mm x 250 mm • Flow rate: 1 ml/min • Column temperature: 40°C • Detection wavelength: 310 nm • Developing solution: acetonitrile/water = 20/80 (volume ratio, containing 0.1% by volume of acetic acid and 0.1% by volume of triethanolamine) [Table 1]

[2] = system: NF-κB; experiment: NF-κB intranuclear transition in UVB-irradiated dermal fibroblasts (Western blotting); assay type: cell-based; conditions: Homo sapiens, light or radiation study; HDF cells, UVB (20 mJ) irradiated, 6 hours; pterostilbene 5 ppm, no carotenoid; not irradiated = 100 %, irradiated without additive = 684%; read-out: Ratio of amount of NF-κB moving into nucleus
Source text: NFκB is considered to be involved in skin aging at an early stage. Therefore, an NFκB intranuclear transition inhibition rate of carotenoid and pterostilbene was examined.
Normal human dermal fibroblasts (HDF cells, KURABO INDUSTRIES LTD.) were subcultured three times according to a common method, in a GlutaMax medium (D-MEM, Gibco) supplemented with 10% fetal bovine serum (FBS, Gibco). The subcultured HDF cells were caused to adhere to a container at 1,000,000 cells/25 cm^2 and put in a serum starvation state for a day. Thereafter, the HDF cells were washed with phosphate buffered saline (PBS).
The cells were irradiated with UVB (20 mJ) emitted from right above the cells, and then the medium was replaced with a medium obtained by adding 0.1% FBS to D-MEM containing the carotenoid and the pterostilbene shown in Tables 6 and 7.
6 hours after the replacement of the medium, nuclei were extracted using NucBuster (Novagen), and the amount of NF-κB moved into the nuclei was determined by Western blotting (WB) (primary antibody: NF-κB p65 Rabbit Monoclonal Antibody (Cat. #1546-1), EPITOMICS).
Moreover, in Experiment 1 and Experiment 7, for comparison, the cells were not irradiated with UVB.

| SMILES | remaining at 1032 h [1] [%] | Residual amount (%) ([1]; citric acid buffer, 1032 h, pH 8) | activity at 5 ppm [2] [%] |
| --- | --- | --- | --- |
| COc1cc(/C=C/c2ccc(O)cc2)cc(OC)c1 [Pterostilbene, trans-1-(3,5-Diemthoxyphenyl)-2-(4-hydroxyphenyl)ethylene] | 99 | – | 420 |
| O=C(O)C1OC(Oc2ccc(C=Cc3cc(O)cc(O)c3)cc2)C(O)C(O)C1O [trans-resveratol 4'-O-beta-D-glucuronide] | – | 73 | – |
| Oc1ccc(C=Cc2cc(O)cc(O)c2)cc1 [Resveratrol] | 54 | – | – |

Second part, led by results:

| remaining at 1032 h [1] [%] | Residual amount (%) ([1]; citric acid buffer, 1032 h, pH 8) | SMILES | activity at 5 ppm [2] [%] |
| --- | --- | --- | --- |
| 26 | – | Oc1cc(O)cc(/C=C/c2ccc(O)c(O)c2)c1 [Piceatannol] | – |
| 46 | – | COc1cc(/C=C/c2cc(O)cc(O)c2)ccc1O [(E)-3,4',5-trihydroxy-3'-methoxystilbene] | – |
